Reference: patent publication US4132738A, “Preparation of 15-deoxy-16-hydroxyprostaglandins” (Miles Laboratories, Inc., priority 1978, dated 1979)

Experiments:
[1] = tested on: gastric secretion in the rat; test: Effects on gastric secretion in the rat; assay type: in vivo; details: comparison in words
Experimental: A procedure based on that described by Lipman, W. (J. Pharm. Pharmacol., 21: 335 [1968]) was used to assess the influence of test compounds on gastric secretion. Rats of one sex weighing 150 to 200 g were randomly divided into groups of six animals each and fasted for 48 hours previous to the experiments, water being available ad libitum. The animals were anesthetized with ether, the abdomen opened through a midline incision, and the pylorus ligated. Test compounds were diluted from stock solution so as to administer a dose of 1.5 mg/kg in a volume equivalent to 1 ml/kg. Subcutaneous injections were applied immediately after surgery and again 2 hours later, so that a total dose of 3.0 mg/kg was administered. Dilutions were made with phosphate buffer (pH 7.38) as recommended by Lee et al. (Prostaglandins, 3: 29 [1973]) in order to insure adequate stability of drugs at the subcutaneous depot. Each compound was tested in one group of rats; an additional control group received only the vehicle.
Four hours after pyllric ligation the animals were killed with ether, the cardias ligated, and the stomachs removed. The volume of gastric secretion was measured and the contents centrifuged at 5000 rpm for 10 minutes. Total acid in the supernatant was titrated against a 0.1 N sodium hydroxide solution and the amount expressed in mEq.
Volume and total acid values of the treated group were compared with those of the controls […]. Antisecretory activity was scored according to the following scale: […]

[2] = tested on: guinea pig trachea; test: Effects on the guinea pig trachea in vitro; assay type: cell-based; details: comparison in words
Experimental: A male guinea pig weighing 200-500 g was killed by a blow on the head. A 20 mm length of the trachea was dissected from the animal, transferred to a petri dish containing Krebs' solution (aerated with 95% O2 and 5% CO2 at 37° C.), and cut longitudinally opposite the tracheal muscle. The tissue was then cut transversely three quarters of the distance across, a second cut in the opposite direction (again three quarters of the distance across the tissue) was made and the procedure was continued for the whole tissue. The ends of the trachea were pulled to form a zig-zig shaped strip. The tracheal strip used in the experiment was approximately 30 mm when extended under 0.25-0.5 g load in the tissue bath. Cotton thread was tied to one end of the tissue, and linen thread to the other. It was attached via the linen thread to a glass hook in a 5 ml isolated tissue bath containing Krebs' solution (37° C., aerated with a mixture of 95% O2 and 5% CO2). The opposite end was attached via cotton to an isotonic Harvard transducer (Model 386 Heart/Smooth Muscle Transducer, Harvard Apparatus). The load on the transducer lever was small, usually 0.3 g, with a range of 0.25-0.5 g, and the magnification high, 80 fold using an appropriate twin-channel pen recorder. A minimum of thirty minutes was allowed before applying a test compound to the tissue. Test compounds were then applied (in volumes of 0.5 ml) at thirty minute intervals, being in contact with the tissue for five minutes followed by an overflow washout time of twenty seconds.
Prostaglandin E1, at a bath concentration of 0.1 mcg/ml, was then tested repeatedly on two such strips, obtained from two different animals, until two responses (the values of which are recorded) differing by no more than 25% occur. A test compound was then added to the same two strips at bath concentrations of 0.01, 0.1, 1.0, and 10.0 mcg/ml and the effects of the compound were recorded. After the test compound had been evaluated at the highest concentration, PGE1 was retested at 0.1 mcg/ml (and the value of the response recorded) to insure that the viability of the strips was retained during the experiment. The mean of the effects of the test compound on the two strips was then calculated for each concentration, and, biased on the resulting values, an activity value was assigned as follows: […]

[3] = tested on: blood pressure in the hypertensive rat; test: Effects on systolic blood pressure in the hypertensive rat; assay type: in vivo; set-up: key: 0: Not significant at any time interval; 1: Significant at one time interval; 2: Significant at two time intervals; details: 1 mg/kg intraperitoneal; 2, 4, 6 and 9 hours
Experimental: The acute anithypertensive activity of test compounds was determined in rats made hypertensive by the procedure of Grollman (Proc. Soc. Exper Biol. Med., 57: 102 [1944]). Female rats weighing between 60 and 100 g were anesthetized with ether, the right kidney approached through a flank retroperitoneal incision, decapsulated and tied with a figure-of-eight-ligature. The animals were left to recover and two weeks later were again anesthetized and the contralateral kidney removed. Four weeks after the second operation the rats were subjected to indirect blood pressure measurements and those showing systolic pressure values greater than 160 mmHg were selected for drug testing.
Blood pressure was measured in the tail with an inflatable occluding cuff placed at the base of the extremity and a pulse detector located distally. The cuff was inflated to approximately 300 mmHg and was slowly deflated until pulsations appeared, indicating the level of systolic pressure; diastolic pressure was not recorded by this procedure. All measurements were carried out in unanesthetized, unsedated animals maintained in a warm environment during the recording procedure and for at least 6 hours before. In all cases, three pressure readings were obtained in succession and mean values were calculated thereof.
Experiments were carried out in groups of five hypertensive rats in which systolic pressure was determined immediately before and 2, 4, 6 and 9 hours after intraperiotoneal administration of the test compound at a dose of 1 mg/kg. Drugs were diluted from stock solutions with phosphate buffer (Lee et. al., Prostaglandins, 29 [1973]), so as to inject this quantity in a volume of 1 ml/kg. Changes from control blood pressure values were calculated for each interval both in mmHg and in percent, and evaluated for significance by means of Wilcoxon's signed rank test (Wilcoxon, R. and Wilcox, R. A., "Some Rapid Approximate Statistical Procedures," Lederle Laboratories, Pearl River [1964]).

[4] = tested on: femoral blood flow in the anesthetized dog; test: Effects on femoral blood flow in the anesthetized dog; assay type: in vivo; details: comparison in words
Experimental: The peripheral vasodilator or constrictor effects of test compounds were determined in mongrel dogs of either sex, weighing between 10 and 20 kg, anesthetized intravenously with 35 mg/kg of pentobarbital sodium. An external iliac artery was dissected immediately above the femoral arch for a length of approximately 5 cm, and a previously calibarated, non-cannulating electromagnetic-flowmeter sensor with a lumen between 2.5 and 3.5 mm was placed snugly around the vessel. Cannulas were placed in a branch of the artery arising distally to the location of the flowmeter sensor for intraarterial drug administrations, in the contralateral femoral artery for systemic blood pressure recording, and in the trachea for artificial respiration with room air. Femoral blood flow and systemic blood pressure were continuously recorded with an electromagnetic flowmeter and pressure transducer, respectively.
After an adequate control period, test compounds were injected intraarterially at one log-spaced doses ranging from 0.001 to 10 mcg, in a volume of 0.5 ml and at 5 to 10 minute intervals. […] The dose changing blood flow by 100 ml/min (ED100 ml/min) was calculated graphically and was used for scoring activity as follows: […]

Compound | GAS value, carbinol versus methyl ester analogue [1] | Guinea pig trachea value, carbinol versus methyl ester analogue [2] | Blood Pressure Hypertensive Rat: activity value [3] | Femoral blood flow value, methyl ester versus carbinol [4]
CCCCC(C)(O)C/C=C/[C@H]1[C@H](O)CC(=O)[C@@H]1CCCCCCC(=O)OC (stereo partly drawn) [TR 4704, Methyl 11α, 16RS-dihydroxy-16-methyl-9-oxoprost-13E-oate, reference compound] | the same | the same | 0 | significantly and undesirably higher
CCCCC(O)C/C=C/[C@H]1[C@H](O)CC(=O)[C@@H]1CCCCCCC(=O)OC (stereo partly drawn) [TR 4705, Methyl 11α, 16RS-dihydroxy-9-oxoprost-13E-en-1-oate, reference compound] | the same | the same | 0 | slightly higher
